Results taken from BindingDB's records for doi:10.1016/0960-894X(95)00199-4 (1995).

How the values were obtained:
[1] = Compound was evaluated for the inhibition of platelet aggregation, assessed turbidimetrically in citreated human platelet rich plasma (PRP)
Thromboxane A2 receptor = molecular target: T1, Thromboxane A2 receptor (Homo sapiens, UniProt P21731); experiment: Compound was evaluated for the inhibition of platelet aggregation, assessed turbidimetrically in citreated human platelet rich plasma (PRP)
T1 sequence (P21731 whole entry): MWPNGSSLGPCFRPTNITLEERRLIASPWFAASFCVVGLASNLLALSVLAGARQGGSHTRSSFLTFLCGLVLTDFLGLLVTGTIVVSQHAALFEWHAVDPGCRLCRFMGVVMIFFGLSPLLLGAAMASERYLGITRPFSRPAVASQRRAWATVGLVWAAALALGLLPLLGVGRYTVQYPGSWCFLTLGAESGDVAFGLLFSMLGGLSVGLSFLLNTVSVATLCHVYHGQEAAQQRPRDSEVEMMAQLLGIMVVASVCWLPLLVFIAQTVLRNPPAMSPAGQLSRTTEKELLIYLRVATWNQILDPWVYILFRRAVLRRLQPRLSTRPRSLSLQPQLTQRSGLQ

SMILES	IC50 [1] [nM]	IC50 (Thromboxane A2 receptor) [nM]
O=C(O)CC/C=C\CC1=CCC[C@@H]1NS(=O)(=O)c1ccc(Cl)cc1	1900	
O=C(O)CCC/C=C\C[C@H]1[C@H](F)CC[C@@H]1NS(=O)(=O)c1ccc(F)cc1		540
O=C(O)COCCCCC1=CCC[C@@H]1NS(=O)(=O)c1ccc(F)cc1F	1800	
Cc1ccc(S(=O)(=O)NC[C@H]2CC[C@@H](F)[C@@H]2C/C=C\CCC(=O)O)cc1	1900	
O=C(O)CCC/C=C\C[C@H]1[C@H](F)CC[C@@H]1NS(=O)(=O)c1ccc(Cl)c(Cl)c1	630	
O=C(O)CC/C=C\C[C@H]1[C@H](F)CC[C@@H]1NS(=O)(=O)c1ccc(Cl)c(Cl)c1	1700	
O=C(O)CC/C=C\C[C@@H]1[C@@H](CNS(=O)(=O)c2ccc(F)cc2)CC[C@H]1F		1900
O=C(O)CCC/C=C\C[C@H]1[C@H](F)CC[C@@H]1NS(=O)(=O)c1ccccc1	1100	
O=C(O)COCCCCC1=CCC[C@@H]1NS(=O)(=O)c1ccccc1[N+](=O)[O-]	1900	
O=C(O)CC/C=C\C[C@@H]1[C@@H](CNS(=O)(=O)c2ccc(F)cc2)CC[C@@H]1F	650	
O=C(O)CC/C=C\C[C@H]1[C@H](F)CC[C@@H]1NS(=O)(=O)c1ccccc1	2000	
O=C(O)CC/C=C\CC1=CCC[C@@H]1NS(=O)(=O)c1ccccc1	2200	
O=C(O)CCC/C=C\C[C@H]1[C@H](F)CC[C@@H]1NS(=O)(=O)c1ccc(Cl)cc1	70	
O=C(O)CC/C=C\CC1=CCC[C@@H]1NS(=O)(=O)c1ccc(F)cc1	1300	
O=C(O)CCC/C=C\C[C@@H]1[C@@H](CNS(=O)(=O)c2ccc(F)cc2)CC[C@H]1F	2000	
O=C(O)CCCCCC[C@@H]1[C@@H](CNS(=O)(=O)c2ccc(F)cc2)CC[C@H]1F	6000	
O=C(O)COCCCC[C@H]1[C@H](F)CC[C@@H]1NS(=O)(=O)c1ccccc1[N+](=O)[O-]	5500	
O=C(O)CC/C=C/C[C@H]1[C@H](F)CC[C@@H]1NS(=O)(=O)c1ccc(F)cc1F	1600	
O=C(O)CCC/C=C\CC1=CCC[C@@H]1NS(=O)(=O)c1ccccc1	2300	
O=C(O)COCCCCC1=CCC[C@@H]1NS(=O)(=O)c1ccccc1	2000	
O=C(O)CC/C=C\C[C@@H]1[C@@H](CNS(=O)(=O)c2ccc(Cl)cc2)CC[C@H]1F	1800	
O=C(O)CCCCC[C@@H]1[C@@H](CNS(=O)(=O)c2ccc(F)cc2)CC[C@H]1F	4700	
O=C(O)CCC/C=C\CC1=CCC[C@@H]1CNS(=O)(=O)c1ccc(F)cc1	1700	
O=C(O)CC/C=C\CC1=CCC[C@@H]1NS(=O)(=O)c1ccc(Cl)c(Cl)c1	1900	
O=C(O)CC/C=C\C[C@H]1[C@H](F)CC[C@@H]1NS(=O)(=O)c1ccccc1[N+](=O)[O-]	560	
O=C(O)CC/C=C\C[C@H]1[C@H](F)CC[C@@H]1NS(=O)(=O)c1ccc(Cl)cc1	210	
O=C(O)CCC/C=C\C[C@H]1[C@H](F)CC[C@@H]1NS(=O)(=O)C1=C2N=CC=CC2CC=C1 (stereo partly drawn)		2000

SMILES	IC50 [1] [nM]	IC50 (Thromboxane A2 receptor) [nM]
O=C(O)COCCCC[C@@H]1[C@@H](CNS(=O)(=O)c2ccc(F)cc2)CC[C@H]1F	650	
O=C(O)COCCCCC1=CCC[C@@H]1NS(=O)(=O)c1ccc(Cl)c(Cl)c1	1900	
O=C(O)CCCCCCC1=CCC[C@@H]1NS(=O)(=O)c1ccc(F)cc1	620	
O=C(O)COCCCC[C@H]1[C@H](F)CC[C@@H]1NS(=O)(=O)c1ccccc1	1700	
O=C(O)COCCCC[C@H]1[C@H](F)CC[C@@H]1NS(=O)(=O)c1ccc(F)cc1	1800	
Cc1ccc(S(=O)(=O)N[C@H]2CCC=C2C/C=C\CCCC(=O)O)cc1	250	
O=C(O)CC/C=C\C[C@H]1[C@H](F)CC[C@@H]1NS(=O)(=O)c1ccc(F)cc1	750	
O=C(O)COCCCCC1=CCC[C@@H]1NS(=O)(=O)c1ccc(F)cc1	2000	
O=C(O)CCC/C=C\CC1=CCC[C@@H]1NS(=O)(=O)c1ccc2ccccc2c1	1900	
O=C(O)CCC/C=C\CC1=CCC[C@@H]1NS(=O)(=O)c1cccc2cccnc12	2000	
Cc1ccc(S(=O)(=O)N[C@H]2CC[C@@H](F)[C@@H]2CCCCOCC(=O)O)cc1	1800	
O=C(O)CCCCCC[C@H]1[C@H](F)CC[C@@H]1NS(=O)(=O)c1ccc(F)cc1	2400	
O=C(O)CCC/C=C\CC1=CCC[C@@H]1NS(=O)(=O)c1ccccc1[N+](=O)[O-]	680	
O=C(O)CCC/C=C\C[C@H]1[C@H](F)CC[C@@H]1NS(=O)(=O)c1ccccc1[N+](=O)[O-]	1800	
Cc1ccc(S(=O)(=O)N[C@H]2CCC=C2CCCCOCC(=O)O)cc1	1900	
O=C(O)COCCCC[C@H]1[C@H](F)CC[C@@H]1NS(=O)(=O)c1ccc(F)cc1F	1800	
O=C(O)CC/C=C\CC1=CCC[C@@H]1NS(=O)(=O)c1ccccc1[N+](=O)[O-]	600	
O=C(O)CCC/C=C\C[C@H]1[C@H](F)CC[C@@H]1NS(=O)(=O)c1ccc2ccccc2c1	200	
O=C(O)CC/C=C\CC1=CCC[C@@H]1CNS(=O)(=O)c1ccc(F)cc1	600	
O=C(O)CCC/C=C\C[C@H]1[C@H](F)CC[C@@H]1NS(=O)(=O)c1ccc(F)cc1F	200	
O=C(O)CC/C=C\CC1=CCC[C@@H]1NS(=O)(=O)c1ccc(F)cc1F	20000	
O=C(O)COCCCCC1=CCC[C@@H]1CNS(=O)(=O)c1ccc(F)cc1	200	
O=C(O)CCC/C=C\CC1=CCC[C@@H]1NS(=O)(=O)c1ccc(F)cc1	4400	
Cc1ccc(S(=O)(=O)N[C@H]2CC[C@@H](F)[C@@H]2C/C=C\CCCC(=O)O)cc1	260	
Cc1ccc(S(=O)(=O)N[C@H]2CCC=C2C/C=C\CCC(=O)O)cc1	1800	
Cc1ccc(S(=O)(=O)N[C@H]2CC[C@@H](F)[C@@H]2C/C=C\CCC(=O)O)cc1	1900	
